The assay concerns the target T1, HCV polymerase (Hepatitis C virus genotype 1b, UniProt P26663).
T1 construct: a region encoding NS5B (J Virol 1991 March, 65(3), 1105-13, 544 amino acids after deletion of 47 amino acids on the C-terminal); 6xHis (C); made in house; host or cells: Escherichia coli
Description: biochemical. Set-up: species or system HCV BK strain. The gist of the method:
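His-tagged NS5B (BK strain, 47-aa C-terminal deletion, E. coli-expressed) at 0.5 μg/ml copied 5 μg/ml run-off RNA bearing the HCV 3′ UTR with 2 μM UTP plus [3H]UTP, 50 μM ATP/GTP, in pH 7.5 Tris with 5 mM MgCl2, 25 °C, 90 min. TCA-precipitated RNA was counted and IC50 calculated.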

pIC50: −log10 of the molar value. Counter-ions that a name gives are not always drawn.

T1 sequence (P26663 2420-2963): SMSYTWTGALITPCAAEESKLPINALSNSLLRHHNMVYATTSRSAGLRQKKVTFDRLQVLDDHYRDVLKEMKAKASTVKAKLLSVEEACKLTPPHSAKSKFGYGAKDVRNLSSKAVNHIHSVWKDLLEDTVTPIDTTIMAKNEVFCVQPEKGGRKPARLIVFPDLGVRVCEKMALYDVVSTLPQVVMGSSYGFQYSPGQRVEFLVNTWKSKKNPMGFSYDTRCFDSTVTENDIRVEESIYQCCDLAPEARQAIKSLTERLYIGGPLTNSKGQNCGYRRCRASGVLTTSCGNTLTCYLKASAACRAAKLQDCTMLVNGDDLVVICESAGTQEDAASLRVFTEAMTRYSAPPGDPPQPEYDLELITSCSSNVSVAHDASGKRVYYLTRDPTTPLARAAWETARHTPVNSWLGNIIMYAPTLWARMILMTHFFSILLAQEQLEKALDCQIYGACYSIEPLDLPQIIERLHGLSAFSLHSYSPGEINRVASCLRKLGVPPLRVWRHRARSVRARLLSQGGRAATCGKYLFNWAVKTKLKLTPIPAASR

As to `COc1ccc2c(c1)OCCn1c-2c(C2CCCCC2)c2ccc(C(=O)NC(C)(C)c3nc4cccnc4[nH]3)cc21` [Example 2-394, N-[1-(3H-imidazo[4,5-b]pyridin-2-yl)-1-methylethyl]-12-cyclohexyl-3-methoxy-6,7-dihydro-5-oxa-7a-azadibenzo[a,e]azulene-9-carboxamide], the pIC50 was over 7.00. The result for `CC(=O)N1CCC(N(C)CCN2CCn3c(c(C4CCCCC4)c4ccc(C(=O)O)cc43)-c3ccccc32)C1` (centres unmarked) [Example 1-251, 5-{2-[N-(1-acetylpyrrolidin-3-yl)-N-methylamino]ethyl}-13-cyclohexyl-6,7-dihydro-5H-benzo[5,6][1,4]diazepino[7,1-a]indole-10-carboxylic acid monohydrochloride] reads over 7.00. The result for `O=C(O)c1ccc2c(C3CCCCC3)c3n(c2c1)CCN(CCN1CCCCC1)c1cc(F)c(F)cc1-3` [Example 1-248, 13-cyclohexyl-2,3-difluoro-5-[2-(piperidin-1-yl)ethyl]-6,7-dihydro-5H-benzo[5,6][1,4]diazepino[7,1-a]indole-10-carboxylic acid dihydrochloride] reads over 7.00; that for `COCCC1CCCN(CCN2CCn3c(c(C4CCCCC4)c4ccc(C(=O)O)cc43)-c3ccc(Cl)cc32)C1` (centres unmarked) [Example 1-307, 3-chloro-13-cyclohexyl-5-{2-[3-(2-methoxyethyl)piperidin-1-yl]ethyl}-6,7-dihydro-5H-benzo[5,6][1,4]diazepino[7,1-a]indole-10-carboxylic acid dihydrochloride], over 7.00. The result for `COc1ccc2c(c1)OCCn1c-2c(C2CCCCC2)c2ccc(C(=O)NC(C)(C)c3nc4cc(C(=O)N5CCC(O)CC5)ccc4[nH]3)cc21` [Example 2-386, N-{1-[5-(4-hydroxypiperidine-1-carbonyl)-1H-benzimidazol-2-yl]-1-methylethyl}-12-cyclohexyl-3-methoxy-6,7-dihydro-5-oxa-7a-azadibenzo[a,e]azulene-9-carboxamide] reads over 7.00. Compound `O=C(O)c1ccc2c(C3CCCCC3)c3n(c2c1)CCN(CC(=O)N1CCC(C(F)(F)F)CC1)c1ccccc1-3` [Example 1-158, 13-cyclohexyl-5-[2-oxo-2-(4-trifluoromethylpiperidin-1-yl)ethyl]-6,7-dihydro-5H-benzo[5,6][1,4]diazepino[7,1-a]indole-10-carboxylic acid monohydrochloride] had a pIC50 of over 7.00. The result for `CCc1ccc2c(c1)N(CCC1CCCN(C(C)C)C1)CCn1c-2c(C2CCCCC2)c2ccc(C(=O)O)cc21` (centres unmarked) [Example 1-369, 13-cyclohexyl-3-ethyl-5-[2-(1-isopropylpiperidin-3-yl)ethyl]-6,7-dihydro-5H-benzo[5,6][1,4]diazepino[7,1-a]indole-10-carboxylic acid] reads over 7.00; that for `O=C(O)c1ccc2c(C3CCCCC3)c3n(c2c1)CCN(CC(=O)N1CCCCC1)c1ccccc1-3` [Example 1-29, 13-cyclohexyl-5-[2-oxo-2-(piperidin-1-yl)ethyl]-6,7-dihydro-5H-benzo[5,6][1,4]diazepino[7,1-a]indole-10-carboxylic acid], over 7.00. The result for `COC(=O)c1ccc2c(C3CCCCC3)c3n(c2c1)CCOc1c(OCC(=O)O)cccc1-3` [Example 2-473, methyl 4-carboxymethoxy-12-cyclohexyl-6,7-dihydro-5-oxa-7a-azadibenzo[a,e]azulene-9-carboxylate] reads 6.00 to 7.00; that for `Cc1ccc2c(c1)N(CCN1CCCC(C)(C)C1)CCn1c-2c(C2CCCCC2)c2ccc(C(=O)O)cc21` [Example 1-440, 13-cyclohexyl-5-[2-(3,3-dimethylpiperidin-1-yl)ethyl]-3-methyl-6,7-dihydro-5H-benzo[5,6][1,4]diazepino[7,1-a]indole-10-carboxylic acid dihydrochloride], over 7.00; that for `COc1ccc2c(c1)OCCn1c-2c(C2CCCCC2)c2ccc(C(=O)N[C@@H](Cc3ccc(NC(=O)OCc4ccccc4)cc3)C(=O)O)cc21` [Example 2-318, (S)-3-(4-benzyloxycarbonylaminophenyl)-2-[(12-cyclohexyl-3-methoxy-6,7-dihydro-5-oxa-7a-azadibenzo[a,e]azulene-9-carbonyl)amino]propionic acid], over 7.00.

`O=C(O)c1ccc2c(C3CCCCC3)c3n(c2c1)CCN(Cc1cccnc1)c1ccccc1-3` [Example 1-135, 13-cyclohexyl-5-(pyridin-3-ylmethyl)-6,7-dihydro-5H-benzo[5,6][1,4]diazepino[7,1-a]indole-10-carboxylic acid dihydrochloride]: the pIC50 was over 7.00. The result for `CC(C)N1CCN(C(=O)CN2CCn3c(c(C4CCCCC4)c4ccc(C(=O)O)cc43)-c3ccccc32)CC1` [Example 1-47, 13-cyclohexyl-5-[2-(4-isopropylpiperazin-1-yl)-2-oxoethyl]-6,7-dihydro-5H-benzo[5,6][1,4]diazepino[7,1-a]indole-10-carboxylic acid dihydrochloride] reads over 7.00; that for `O=C(O)c1ccc2c(C3CCCCC3)c3n(c2c1)CCOc1c(Nc2ccccc2)cccc1-3` [Example 2-324, 12-cyclohexyl-4-phenylamino-6,7-dihydro-5-oxa-7a-azadibenzo[a,e]azulene-9-carboxylic acid], over 7.00. Take `CCN(CC)CCCCN1CCn2c(c(C3CCCCC3)c3ccc(C(=O)O)cc32)-c2ccc(C)cc21` [Example 1-493, 13-cyclohexyl-5-(4-diethylaminobutyl)-3-methyl-6,7-dihydro-5H-benzo[5,6][1,4]diazepino[7,1-a]indole-10-carboxylic-acid dihydrochloride]: the pIC50 is over 7.00. For the compound `COc1ccc2c(c1)OCCn1c-2c(C2CCCCC2)c2ccc(C(=O)NC3(c4nc5ccc(OCc6ccccc6)cc5[nH]4)CCC3)cc21` [Example 2-420, N-[1-(6-benzyloxy-1H-benzimidazol-2-yl)cyclobutyl]-12-cyclohexyl-3-methoxy-6,7-dihydro-5-oxa-7a-azadibenzo[a,e]azulene-9-carboxamide], the pIC50 is over 7.00. For `COc1ccc2c(c1)OCCn1c-2c(C2CCCCC2)c2ccc(C(=O)NC3(C(=O)Nc4ccc(/C=C(\C)C(=O)O)cc4)CCC3)cc21` [Example 2-528, (E)-3-[4-({1-[(12-cyclohexyl-3-methoxy-6,7-dihydro-5-oxa-7a-azadibenzo[a,e]azulene-9-carbonyl)amino]cyclobutanecarbonyl}amino)phenyl]-2-methylacrylic acid] the value was over 7.00; for `O=C(O)c1ccc2c(C3CCCCC3)c3n(c2c1)CCN(CCc1ccccn1)c1ccccc1-3` [Example 1-163, 13-cyclohexyl-5-[2-(pyridin-2-yl)ethyl]-6,7-dihydro-5H-benzo[5,6][1,4]diazepino[7,1-a]indole-10-carboxylic acid dihydrochloride], over 7.00; for `COCCC1CCN(CCN2CCn3c(c(C4CCCCC4)c4ccc(C(=O)O)cc43)-c3ccc(C)cc32)CC1` [Example 1-502, 13-cyclohexyl-5-{2-[4-(2-methoxyethyl)piperidin-1-yl]ethyl}-3-methyl-6,7-dihydro-5H-benzo[5,6][1,4]diazepino[7,1-a]indole-10-carboxylic acid dihydrochloride], over 7.00. The result for `COc1ccc2c(c1)OCCn1c-2c(C2CCCCC2)c2ccc(C(=O)N[C@@H](Cc3c[nH]c4ccc(OCCO)cc34)c3csc(C)n3)cc21` [Example 2-421, N—[(S)-2-[5-(2-hydroxyethoxy)-1H-indol-3-yl]-1-(2-methylthiazol-4-yl)ethyl]-12-cyclohexyl-3-methoxy-6,7-dihydro-5-oxa-7a-azadibenzo[a,e]azulene-9-carboxamide] reads over 7.00; that for `COc1ccc2c(c1)OCCn1c-2c(C2CCCCC2)c2ccc(C(=O)NC3(c4nc5cc(CO)c(OC)cc5[nH]4)CCC3)cc21` [Example 2-413, N-[1-(5-hydroxymethyl-6-methoxy-1H-benzimidazol-2-yl)cyclobutyl]-12-cyclohexyl-3-methoxy-6,7-dihydro-5-oxa-7a-azadibenzo[a,e]azulene-9-carboxamide], over 7.00. For `CC(C)(NC(=O)c1ccc2c(C3CCCCC3)c3n(c2c1)CCOc1ccccc1-3)c1ccc(OCc2ccccc2)cc1` [Example 2-228, N-[1-(4-benzyloxyphenyl)-1-methylethyl]-12-cyclohexyl-6,7-dihydro-5-oxa-7a-azadibenzo[a,e]azulene-9-carboxamide] the value was over 7.00; for `COc1ccc2c(c1)OCCn1c-2c(C2CCCCC2)c2ccc(C(=O)N[C@@H](Cc3ccc(OC(C)=O)cc3)c3noc(=O)[nH]3)cc21` [Example 2-430, 4-[(S)-2-[(12-cyclohexyl-3-methoxy-6,7-dihydro-5-oxa-7a-azadibenzo[a,e]azulene-9-carbonyl)amino]-2-(5-oxo-4,5-dihydro-1,2,4-oxadiazol-3-yl)ethyl]phenyl acetate], over 7.00. With `CC(C)(NC(=O)c1ccc2c(C3CCCCC3)c3n(c2c1)CCOc1ccccc1-3)C(=O)N1CCC(O)(c2ccc(F)cc2)CC1` [Example 2-358, N-{2-[4-(4-fluorophenyl)-4-hydroxypiperidin-1-yl]-1,1-dimethyl-2-oxoethyl]-12-cyclohexyl-6,7-dihydro-5-oxa-7a-azadibenzo[a,e]azulene-9-carboxamide], the pIC50 is over 7.00. For the compound `COc1ccc2c(c1)OCCn1c-2c(C2CCCCC2)c2ccc(C(=O)N[C@@H](Cc3ccc(N)cc3)C(=O)O)cc21` [Example 2-320, (S)-3-(4-aminophenyl)-2-[(12-cyclohexyl-3-methoxy-6,7-dihydro-5-oxa-7a-azadibenzo[a,e]azulene-9-carbonyl)amino]propionic acid], the pIC50 was over 7.00.

Take `NC(=O)c1ccc2c(c1)c1c(n2C2CCCCC2)-c2ccc(Cl)cc2N(CCN2CCCCC2)CC1` [Example 10-3, 3-chloro-12-cyclohexyl-5-[2-(piperidin-1-yl)ethyl]-5,6,7,12-tetrahydrobenzo[2,3]azepino[4,5-b]indole-9-carboxamide]: the pIC50 is over 7.00.

The values are drawn from US20070049593A1 (priority 2004, published 2007).
